Test results as given in patent publication US10905735B2 (priority 2016, dated 2021).
Like-named read-outs stand apart in the source and are kept apart here. Bridge positions count the residues as written; N and C are the ends. Peptide text beside a SMILES is read from it.

Tests used:
[1] = system: production of the toxins of Staphylococcus aureus 04018 strain (MDBK cells readout); format: cell-based; details: for Cell survival (%) / inhibitory effect on the production of the toxins of Staphylococcus aureus (in words): MDBK cells; for MDBK cell OD (M ± SD): OD 595 nm, MTT; for inhibitory effect on the production of the toxins of Staphylococcus aureus (in words): peptide in normal saline (MRK as suspension)
Procedure: For the determination method for inhibitory level on the toxins of Staphylococcus aureus, please refer to literatures. (Yang G, et al. A novel peptide screened by phage display can mimic TRAP antigen epitope against Staphylococcus aureus infections. J Biol. Chem. 2005, 280: 27431-27435), details are as follows:
1) Staphylococcus aureus strain 04018 frozen in refrigerator is scribbed to a blood plate or BHI plate; cultured in an incubator for 16 hours until monoclonal colony is observed in the plate, and placed in a 4° C. refrigerator for standby use.
2) After 8 hours, the monoclonal colony in the plate is randomly selected, 25 mL test tubes of the BHI medium is inoculated with the monoclonal colony; and then the two test tubes are shook in a shaking table at a temperature of 37° C. at a speed of 200 rpm, the bacteria are collected after 16 hours, the bacteria solution in the two test tubes are mixed evenly for standby use.
3) The chemosynthetic peptide MRK and MRG and the positive control (the toxins of Staphylococcus aureus inhibitor protein TP) are dissolved in normal saline, diluted to different concentrations, and added to bacteria BHI medium. The final concentrations of small peptides are 0, 1.5, 5, 15, 50, 150 and 500 μg/mL respectively. The solvent control is the same amount of normal saline; the negative control is the BHI medium of Staphylococcus aureus; and a normal cell control is also provided.
4) The chemosynthetic peptides of different concentrations are co-incubated with Staphylococcus aureus 04018 and cultured for 6 hours, and then bacteria are collected. 700 μL bacterial suspensions are added to EP tubes, centrifuged at 8000 rpm for 5 min, supernatants are obtained, boiled at a temperature of 100° C. for 7 min, and centrifuged at a speed of 14000 rpm for 10 min. 10 μL supernatants are taken, added into a 96-microwell cell culture plate inoculated with 1×10<5>/mL MDBK cells. After continuous culture for 18-20 hours, 5 μL MTT solution (5 mg/mL) is added to each microwell, 100 μL 10% SDS+0.01M HCl solution is added to each microwell after 3 hours. After culture in the incubator at a temperature of 37° C. for 20 hours, detection at 595 nm and reading are carried out by an enzyme-linked immunometricmeter.

[2] = system: Staphylococcus aureus Newman strain; details: 5 mg/kg body weight, injected 30 minutes after infection; versus aseptic water control; one week
Procedure: 1) Preparation of Staphylococcus aureus Newman Solution
Newman monoclonal strain with hemolytic circles is selected, 3 mL BHI medium is inoculated with the strain, and the strain is shook overlight at a speed of 220 rpm and a temperature of 37° C.
1 mL overnight strain is centrifuged at a speed of 5000 rpm for 2 min, and the supernatant is removed.
20 mL aseptic PBS is added for resuspension at a speed of 5000 rpm for 5 min, and the supernatant is removed.
5 mL aseptic PBS resuspended bacteria is diluted to OD600=0.
2) Establishment of Model of Bacteremia and Determination of Polypeptide Activity in BALB/c Mice
BALB/c mice (female, 8 weeks) are subjected to intraperitoneal injection of anesthetic (1% pentobarbital) (200 μL for each mouse).
Newman solution (OD600=0.2, 100 μL for each mouse) is injected into retrobulbar venous plexus.
After 30 minutes of infection, 6 mice are injected with polypeptide at enterocoelia (0.5 mg/mL, 200 μL for each mouse) and 7 mice in control are injected with sterile water (200 μL for each mouse).
The times of the mouse in one week are recorded and used for drawing survival curves.

Compound | inhibitory effect on toxin production compared with TP protein (positive control) ([1]; 5 μg/mL small peptide) | Cell survival (%) ([1]; 0.005 mg/mL peptide) | MDBK cell OD (M ± SD) ([1]; 0.005 mg/mL peptide) | Cell survival (%) ([1]; 0.05 mg/mL peptide) | MDBK cell OD (M ± SD) ([1]; 0.05 mg/mL peptide) | Cell survival (%) ([1]; 0.15 mg/mL peptide) | MDBK cell OD (M ± SD) ([1]; 0.15 mg/mL peptide) | inhibitory effect on the production of the toxins of Staphylococcus aureus (in words) [1] | death / survival rate in bacteremia (in words) [2] | solubility [µg/mL]
CH3(CH2)10CO-Gly-Cyclo(Cys-Gln-His-D-Trp-Trp-His-Trp-Tyr-Cys)-Arg-Arg-Arg-NH2 [MRG] | greater than that of TP protein | 60 | 0.296 ± 0.001 | 92 | 0.454 ± 0.015 | 96 | 0.473 ± 0.004 | obvious protective effect on the proliferation inhibition of MDBK cells | survival rate is greatly improved | –
NC(=O)CC[C@@H]1NC(=O)[C@@H](N)CSSC[C@@H](C(=O)O)NC(=O)[C@H](Cc2ccc(O)cc2)NC(=O)[C@H](Cc2c[nH]c3ccccc23)NC(=O)[C@H](Cc2c[nH]cn2)NC(=O)[C@H](Cc2c[nH]c3ccccc23)NC(=O)[C@H](Cc2c[nH]c3ccccc23)NC(=O)[C@H](Cc2c[nH]cn2)NC1=O [MRK, CQHWWHWYC] (H-CQHWWHWYC-OH; disulfide 1-9) | – | 25 | 0.123 ± 0.011 | 20 | 0.098 ± 0.014 | 35 | 0.171 ± 0.001 | could not inhibit the production of the toxins | good inhibitory effect on Staphylococcus aureus infection in vivo | < 100
